Read-outs that look alike come from different tables or passages of the source.
Columns and labels:
red blood cells = assay: Light hemolysis test; type: cell-based, sheep; settings: UV-irradiation 290 to 400 nm; 0.0008 to 0.1 w/v %
Description: Test Example 12: Light Hemolysis Test
The compound used in the present invention was dissolved at target concentrations and was mixed with a 2.5 v/v % suspension of red blood cells prepared from a defibrinated blood of sheep on a microplate at concentrations of 0.0008 to 0.1 w/v %. The mixtures were exposed to […] of UV-irradiation within a range of wavelength 290 to 400 nm, UVA and UVB using ultra violet fluorescent lamps, GL20SE and FL20S-BLB lamps manufactured by Sankyo Denki Co., Ltd. and Panasonic Corporation, respectively. After the completion of the irradiation, the mixtures were centrifuged, and a supernatant of the mixture was collected and was located on a microplate. The phototoxicity was assessed by measuring an absorbance at wavelength of 540 nm and 630 nm in the supernatant. The absorbance data at wavelength of 540 nm and 630 nm were used as indicators of biomembrane damage (photohemolysis %) and hyperoxidation of lipid membrane (methemoglobin formation), respectively. The criteria of phototoxicity was as follows; It was judged to be non-phototoxic (−) when the photohemolysis %<10 and the maximal change in the absorbance at 630 nm (ΔOD)<0.05 were observed. It was judged to be […] when the photohemolysis was more than 10% and the maximal change in the absorbance at 630 nm (ΔOD) was more than 0.05.

[1] = Metabolism stability test; type: in vitro ADME, human; settings: 2 μmol/L of test compound; 37° C., 30 minutes
Description: Test Example 5: Metabolism Stability Test
A reaction was performed (oxidative reaction) at 37° C. for 0 minute or 30 minutes in the presence of 1 mmol/L NADPH in 0.2 mL of a buffer (50 mmol/L Tris-HCl pH 7.4, 150 mmol/L potassium chloride, 10 mmol/L magnesium chloride) containing 0.5 mg protein/mL of human liver microsomes. After the reaction, 50 μL of the reaction solution was added to 100 μL of a methanol/acetonitrile=1/1 (v/v), mixed and centrifuged at 3000 rpm for 15 minutes. The compound used in the present invention in the supernatant was quantified by LC/MS/MS or Solid Phase Extraction (SPE)/MS, and a remaining amount of the compound used in the present invention after the reaction was calculated, letting a compound amount at 0 minute reaction time to be 100%. Hydrolysis reaction was performed in the absence of NADPH and glucuronidation reaction was in the presence of 5 mM UDP-glucuronic acid in place of NADPH, followed by similar operations.

influenza virus = type: in vivo, human; settings: 20 to <65 years old
[2] = type: in vivo, human; settings: Compound II-6 single 40 or 80 mg; Oseltamivir 75 mg twice a day for 5 days
From the text: (4) Incidence of side effects
(4) Incidence of Side Effects
The number of side-effect episodes and the number of patients with side effect were counted for each administration group.

| SMILES | phototoxicity (red blood cells) | remaining rate after reaction with human liver microsomes (printed: % inhibition) [1] [%] | Amount of change in virus titer from baseline, mean (influenza virus; Day 2 (24 hours later)) | Proportion of patients having a positive influenza virus titer (influenza virus; Day 2 (24 hours later)) [%] | Amount of change in virus titer from baseline, mean (influenza virus; Day 3 (48 hours later)) | Proportion of patients having a positive influenza virus titer (influenza virus; Day 3 (48 hours later)) [%] | Amount of change in virus titer from baseline, mean (influenza virus; Day 4 (72 hours later)) | Proportion of patients having a positive influenza virus titer (influenza virus; Day 4 (72 hours later)) [%] | Amount of change in virus titer from baseline, mean (influenza virus; Day 5 (96 hours later)) | Proportion of patients having a positive influenza virus titer (influenza virus; Day 5 (96 hours later)) [%] | Amount of change in virus titer from baseline, mean (influenza virus; Day 6 (120 hours later)) | Proportion of patients having a positive influenza virus titer (influenza virus; Day 6 (120 hours later)) [%] | Amount of change in virus titer from baseline, mean (influenza virus; Day 9 (192 hours later)) | Proportion of patients having a positive influenza virus titer (influenza virus; Day 9 (192 hours later)) [%] | Incidence of adverse events the causal relationship of which cannot be denied (patients) [2] [%] |
| --- | --- | --- | --- | --- | --- | --- | --- | --- | --- | --- | --- | --- | --- | --- | --- |
| O=C1c2c(O)c(=O)ccn2N([C@@H]2c3ccccc3SCc3c2ccc(F)c3F)[C@@H]2COCCN12 [III-2] | (−) (It was judged to be non-phototoxic (−) when the photohemolysis %<10 and the maximal change in the absorbance at 630 nm (ΔOD)<0.05 were observed) | 90.1 |  |  |  |  |  |  |  |  |  |  |  |  |  |
| CCOC(=O)C1=C[C@@H](OC(CC)CC)[C@H](NC(C)=O)[C@@H](N)C1 [Oseltamivir, reference compound] |  |  | −2.51 log10 [TCID50/mL] | 91.0 | −4.20 log10 [TCID50/mL] | 57.3 | −4.63 log10 [TCID50/mL] | 27.6 | −4.98 log10 [TCID50/mL] | 20.9 | −4.85 log10 [TCID50/mL] | 9.0 | −5.22 log10 [TCID50/mL] | 3.2 | 8.4 |
